The text below walks through data of the Kinase Knowledgebase extract (Sharma et al. 2016).

Molecules are shown by their SMILES.

In assay [1] the target is CDK2 (UniProt P24941). Description: Enzyme Assay.
For assay [2], the target named is CDK2 (UniProt P24941). The assay can be described thus: Enzyme Assay. This is another data set of the same source.
Assay [3] deals with EGFR (UniProt P00533).
The target in assay [4] is EGFR (human) (UniProt P00533).
The target in assay [5] is EGFR (human), P00533 [WT].
Chain of EGFR (human), P00533 [WT] (P00533 whole entry, looked up): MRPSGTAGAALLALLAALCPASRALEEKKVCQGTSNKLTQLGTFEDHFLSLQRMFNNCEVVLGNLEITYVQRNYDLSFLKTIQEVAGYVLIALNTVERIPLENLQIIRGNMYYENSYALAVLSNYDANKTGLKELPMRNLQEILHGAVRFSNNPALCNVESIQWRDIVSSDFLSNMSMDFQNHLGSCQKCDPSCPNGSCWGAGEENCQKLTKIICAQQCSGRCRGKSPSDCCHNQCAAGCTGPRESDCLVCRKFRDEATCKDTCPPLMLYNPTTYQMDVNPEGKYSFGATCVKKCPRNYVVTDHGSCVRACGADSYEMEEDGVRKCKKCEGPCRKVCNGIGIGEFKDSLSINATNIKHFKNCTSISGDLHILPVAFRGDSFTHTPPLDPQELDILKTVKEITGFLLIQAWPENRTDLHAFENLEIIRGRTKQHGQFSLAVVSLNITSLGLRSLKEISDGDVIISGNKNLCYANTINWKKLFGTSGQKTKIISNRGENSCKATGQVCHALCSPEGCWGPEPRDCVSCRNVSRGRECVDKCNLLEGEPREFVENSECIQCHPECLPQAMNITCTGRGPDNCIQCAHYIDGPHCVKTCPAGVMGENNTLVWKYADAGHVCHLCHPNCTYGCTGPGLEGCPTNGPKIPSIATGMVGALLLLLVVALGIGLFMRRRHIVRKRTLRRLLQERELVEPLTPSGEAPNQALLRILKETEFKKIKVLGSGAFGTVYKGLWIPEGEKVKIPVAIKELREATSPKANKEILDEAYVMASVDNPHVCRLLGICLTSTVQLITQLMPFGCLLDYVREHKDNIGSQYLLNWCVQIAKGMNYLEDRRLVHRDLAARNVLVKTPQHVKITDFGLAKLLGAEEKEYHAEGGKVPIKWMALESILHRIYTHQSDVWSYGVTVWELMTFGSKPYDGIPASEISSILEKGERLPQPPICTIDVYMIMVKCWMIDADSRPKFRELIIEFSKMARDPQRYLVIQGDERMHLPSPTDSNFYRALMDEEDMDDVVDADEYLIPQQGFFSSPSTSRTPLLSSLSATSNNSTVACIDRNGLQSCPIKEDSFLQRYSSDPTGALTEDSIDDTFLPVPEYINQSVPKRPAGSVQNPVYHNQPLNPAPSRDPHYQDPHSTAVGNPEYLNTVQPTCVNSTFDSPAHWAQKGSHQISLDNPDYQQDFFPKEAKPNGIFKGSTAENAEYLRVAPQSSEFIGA
Assay [6] concerns the target PIK3CA (human) (UniProt P42336). The assay can be described thus: Inhibition of PIK3CA Kinase Activity in HeLa Cells.
For assay [7], the target named is EGFR (human) (UniProt P00533). To be noted: A431.
Assay [8] deals with MAPK14 (human) (UniProt Q16539). Description: Inhibition of MAPK14 Kinase Activity.
Chain of MAPK14 (human) (Q16539 whole entry, looked up): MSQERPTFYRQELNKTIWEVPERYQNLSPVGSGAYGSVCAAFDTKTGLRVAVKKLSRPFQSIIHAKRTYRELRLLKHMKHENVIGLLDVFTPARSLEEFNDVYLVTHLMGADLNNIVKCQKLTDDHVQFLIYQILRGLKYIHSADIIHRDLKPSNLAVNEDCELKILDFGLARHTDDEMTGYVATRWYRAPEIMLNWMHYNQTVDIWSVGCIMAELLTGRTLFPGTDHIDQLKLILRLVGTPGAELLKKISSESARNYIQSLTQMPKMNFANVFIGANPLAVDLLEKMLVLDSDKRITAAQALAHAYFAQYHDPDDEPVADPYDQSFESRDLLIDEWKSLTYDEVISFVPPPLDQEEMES
Assay [9] has the same target. The assay can be described thus: Inhibition of MAPK14 Kinase Activity. This is another data set of the same source.
Assay [10] deals with MAPK14 (UniProt Q16539). The assay can be described thus: Inhibition of MAPK14 Kinase Activity (Binding Assay).
Chain of MAPK14 (Q16539 whole entry, looked up): as above
The target of assay [11] is MAPK14 (UniProt Q16539). The assay can be described thus: Inhibition of MAPK14 Kinase Activity (Spectrophometric Assay).
In another assay the target is CDK2 (human) (UniProt P24941).
The target of assay [12] is EGFR (human) (UniProt P00533). Particulars: hn5.
Assay [13] addresses PIK3CA (human) (UniProt P42336). Description: Inhibition of PIK3CA Kinase Activity (FP Assay).
The target in assay [14] is EGFR (UniProt P00533). To be noted: concentration not given here.
Assay [15] deals with MAPK14 (UniProt Q16539). The assay can be described thus: CSBP binding - Inhibition of RBL-1 5 Lipoxygenase Enzyme Assay.
Assay [16] concerns the target MAPK14 (UniProt Q16539). The assay can be described thus: CSBP binding - Inhibition of Prostaglandin H Synthase Type-1 Enzyme Assay.
For assay [17], the target named is EGFR (UniProt P00533). The source holds these as a separate data set.
Assay [18] has as its target EGFR (human) (UniProt P00533). This is another data set of the same source.
The target of assay [19] is EGFR (human) (UniProt P00533). This is another data set of the same source.
Assay [20] has as its target EGFR (human) (UniProt P00533). This is another data set of the same source.
For assay [21], the target named is EGFR (human) (UniProt P00533). To be noted: hn5. The source holds these as a separate data set.
In assay [22] the target is EGFR (human) (UniProt P00533). This is another data set of the same source.
For assay [23], the target named is EGFR (human) (UniProt P00533). Particulars: a431.
Assay [24] has as its target EGFR (human) (UniProt P00533). Particulars: kb.
Assay [25] has as its target EGFR (UniProt P00533). This is another data set of the same source.
Assay [26] concerns the target EGFR (human) (UniProt P00533). To be noted: a431. The source holds these as a separate data set.
In assay [27] the target is CDK2 (UniProt P24941). Description: Enzyme Assay. This is another data set of the same source.

The term Ki denotes a measure of affinity in units of concentration, obtained from inhibition or displacement. In general, IC50 refers to the midpoint of a concentration-inhibition curve. Low values mean greater potency in that assay, high ones weaker potency in that assay. By EC50 is commonly meant the concentration at which the effect is half-maximal. The inhibition is the drop in the measured response relative to a control, in per cent.

Chain of EGFR (human) (P00533 whole entry, looked up): as the sequence (P00533 whole entry, looked up) above
Chain of EGFR (P00533 whole entry, looked up): as above
Chain of PIK3CA (human) (P42336 whole entry, looked up): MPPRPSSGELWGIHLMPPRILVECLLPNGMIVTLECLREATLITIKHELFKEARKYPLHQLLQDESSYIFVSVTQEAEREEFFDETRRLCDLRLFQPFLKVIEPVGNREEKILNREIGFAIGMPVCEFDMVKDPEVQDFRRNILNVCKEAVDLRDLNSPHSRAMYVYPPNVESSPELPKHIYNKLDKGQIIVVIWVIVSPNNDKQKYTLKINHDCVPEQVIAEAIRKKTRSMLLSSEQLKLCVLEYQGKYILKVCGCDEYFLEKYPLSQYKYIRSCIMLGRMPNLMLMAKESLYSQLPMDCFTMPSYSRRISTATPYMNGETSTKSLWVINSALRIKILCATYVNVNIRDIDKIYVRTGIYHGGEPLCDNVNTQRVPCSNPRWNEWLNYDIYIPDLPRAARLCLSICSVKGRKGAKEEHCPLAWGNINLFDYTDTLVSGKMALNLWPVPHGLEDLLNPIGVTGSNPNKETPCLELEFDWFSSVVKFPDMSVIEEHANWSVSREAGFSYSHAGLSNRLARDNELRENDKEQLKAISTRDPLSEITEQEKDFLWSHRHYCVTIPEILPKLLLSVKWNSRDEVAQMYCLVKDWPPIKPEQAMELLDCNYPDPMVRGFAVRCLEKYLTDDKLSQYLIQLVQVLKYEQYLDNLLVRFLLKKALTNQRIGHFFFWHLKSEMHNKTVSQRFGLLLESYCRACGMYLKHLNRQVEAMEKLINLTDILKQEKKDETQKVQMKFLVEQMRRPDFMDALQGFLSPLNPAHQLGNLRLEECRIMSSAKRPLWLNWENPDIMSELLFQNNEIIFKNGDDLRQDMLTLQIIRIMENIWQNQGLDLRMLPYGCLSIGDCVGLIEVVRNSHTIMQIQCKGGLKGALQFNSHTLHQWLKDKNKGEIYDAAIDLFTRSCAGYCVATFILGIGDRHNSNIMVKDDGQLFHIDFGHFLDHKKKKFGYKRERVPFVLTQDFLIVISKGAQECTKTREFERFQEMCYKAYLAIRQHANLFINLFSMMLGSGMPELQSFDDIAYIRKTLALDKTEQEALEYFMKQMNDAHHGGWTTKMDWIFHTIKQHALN

For the compound `CC(=O)NCc1ccc(Nc2nccc(-c3sc(=O)n(C)c3C)n2)cc1`, the Ki is 34 nM on CDK2 [1] and 220 nM at CDK2 [2].

`COC1=CC(=O)C(Nc2ncnc3cc(OCC4CCN(C)CC4)c(OC)cc23)=CC1=O` gave a half-maximal inhibitory concentration (IC50) against EGFR [3] of 2200 to 200000 nM. `COC(=O)Nc1ccc(Nc2ncnc3cc(OC)c(OC)cc23)cc1` gave an IC50 against EGFR (human) [4] of 6900 nM. Turning to `Brc1cccc(Nc2ccnc3ccccc23)c1`, in assay [5], the IC50 was found to be 5500 nM. For `Cc1ccc(Sc2cccc3[nH]c4nc(N)nc(N)c4c23)cc1`, at PIK3CA (human) [6], the EC50 worked out at 12200 nM. At EGFR (human) [7], this compound yielded a half-inhibitory concentration (IC50) of 14100 nM. `CONC(=O)c1ccc(C)c(Nc2nc(NCC3CCCC(CN)C3)nc(NC3CCCCC3C)n2)c1` (configuration not stated): the IC50 on MAPK14 (human) [8] and against MAPK14 (human) [9] was 2 nM in each case. In the case of `CC12CC(C(=O)O)CC(C)(C1)C(=O)N(Cc1cccc(-n3nc(C(C)(C)C)cc3NC(=O)Nc3cccc4ccccc34)c1)C2=O` (configuration not stated), the concentration for half-maximal inhibition (IC50) at MAPK14 [10] amounted to 2150 nM; against MAPK14 [11] it was 953 nM. On to `N=C(N)NS(=O)(=O)c1ccc(NC2=Cc3ccc(C(=O)c4c(Cl)cccc4Cl)cc3C2)cc1`, for which the IC50 against CDK2 (human) came out at 250 nM.

In the case of `OCc1ccc(-c2cc3ncnc(Nc4ccc(OCc5cccc(F)c5)c(Cl)c4)c3s2)o1`, the 50% inhibitory concentration (IC50) against EGFR (human) [12] was found to be 100 nM.

For `COC[C@H]1OC(=O)/C(=C/N(CCN(C)C)C(C)(C)C)C2=C(O)C(=O)C3=C([C@H](OC(C)=O)C[C@@]4(C)C3CC[C@@H]4O)[C@]21C` (some centres not stated), the IC50 at PIK3CA (human) [13] came out at 9.6 nM. Take `O=C1NC(=O)c2c1c1c3ccccc3[nH]c1c1[nH]c3cc(O)c(O)cc3c21`: the inhibition against EGFR [14] is 50 to 80%. `CONC(=O)c1ccc(C)c(Nc2nc(NCC3CCCC(CN)C3)nc(NC3CCCCC3)n2)c1` (configuration not stated): the 50% inhibitory concentration (IC50) at MAPK14 (human) [8] and against MAPK14 (human) [9] was 2 nM each time. For the compound `Clc1ccc(-c2ncn(CCCN3CCOCC3)c2-c2ccncc2)cc1Cl`, the concentration for half-maximal inhibition (IC50) at MAPK14 [15] and at MAPK14 [16] was more than 100000 nM throughout. For `O=C1NCc2c1c1c3ccc(O)cc3[nH]c1c1[nH]c3ccccc3c21`, at EGFR [14], the inhibition is 50 to 80%. `COc1ccc(C#CC(C)(C)O)cc1-c1n[nH]c2nc(Nc3ccc(F)cc3F)ncc12`: the IC50 against EGFR [17] was found to be 5200 nM. As to `COc1ccc(C#CC(C)(C)N)cc1-c1n[nH]c2nc(Nc3ccc(F)cc3F)ccc12`, on EGFR [17] (concentration not given here), the inhibition was -43%. `COc1cc2c(NC3=CC(=O)C(OC(CF)CF)=CC3=O)ncnc2cc1OCC1CCN(C)CC1` registered an IC50 at EGFR [3] of 1800 to 117000 nM. In turn, `CS(=O)(=O)CCNCc1ccc(-c2ccc3ncnc(Nc4ccc(OCc5cccc(F)c5)c(Br)c4)c3c2)o1` showed a 50% inhibitory concentration (IC50) against EGFR (human) [18] of less than 100 nM. `Cc1cc(N2CCN(CCC#N)CC2)cc2[nH]c(-c3c(NC[C@@H](O)c4ccccc4Cl)cc[nH]c3=O)nc12` had an IC50 on EGFR (human) [19] of more than 10000 nM.

In the case of `O=S(=O)(CCNCc1ccc(-c2ccc3ncnc(Nc4ccc(OCc5cccc(F)c5)c(Cl)c4)c3c2)o1)c1ccccn1`, the IC50 was found to be 19 nM on EGFR (human) [20] and 1550 nM on EGFR (human) [21]. For the compound `O=C(C=CCN1CCOCC1)Nc1ccc2ncnc(Nc3cccc(Br)c3)c2c1`, the IC50 against EGFR (human) [22] was 74 nM; on EGFR (human) [23] it was 1890 nM.

With `COc1cc2ncnc(Oc3ccc(Br)cc3F)c2cc1OC`, the IC50 on EGFR (human) [4] was 5900 nM. `CNC(=O)C1(N(C)Cc2cc3c(Nc4cccc(Cl)c4F)ncnc3cc2OC)CCN(C)CC1`: the IC50 at EGFR (human) [24] was 36 nM.

As to `Cc1c(-c2ccnc(Nc3cccc(CCNS(C)(=O)=O)c3)n2)sc(=O)n1C`, the inhibition constant (Ki) on CDK2 [1] amounted to 39 nM; at CDK2 [2], 42 nM. At EGFR [25], `CN1CCC(Oc2cccc3ncnc(Nc4ccc(OCc5ccccn5)c(Cl)c4)c23)CC1` showed an IC50 of 110 nM. Consider `N#Cc1cnc2ccc(NCc3c[nH]cn3)cc2c1Nc1ccc(F)c(Cl)c1`, for which the IC50 at EGFR (human) [26] came to 30 nM. As to `COc1ccc2c(-c3ccc(N4CCC(N)C4)cc3)nc(N)nc2c1C(C)C` (configuration not stated), the IC50 on CDK2 [27] turned out to be 296 nM; against CDK2 [1], 2550 nM.
